Results as given in patent US3944498A, “Germicidal detergent containing a thienyliodonium salt” (The Dow Chemical Company, priority 1973, dated 1976).

How the values were obtained:
S. aureus = experiment: Nutrient agar growth test, S. aureus (Example 3); type: cell-based; settings: 0.001 percent by weight, 2 days, 35°C
Excerpt: (§1) The 4-chlorophenyl-2-thienyliodonium chloride, trifluoroacetate and trichloroacetate salts are dispersed in melted nutrient agar to produce culture media containing 0.001 percent by weight of one of the salt compounds. Such melted media are then poured into petri dishes and the solidified surface in each dish inoculated with a 24-hour broth culture, one of the organisms S. aureus and S. typhosa. In a check operation, petri dishes containing unmodified nutrient agar are each individually inoculated in the same manner with the named organisms. After two days' incubation at 35°C. the agar surface in each dish is examined for microbial growth. […] At the time of these observations the check dishes are found to support a heavy growth of the two named organisms.

[1] = tested on: organisms of mold and mildew; experiment: Protection of latex paint on wood panels from mold and mildew, tropical chamber; settings: 0.3 percent by weight in latex paint, two months, 95 percent RH, 82°F
Experimental: 4-Chlorophenyl-2-thienyliodonium chloride is employed in a paint composition to protect the paint from attack and subsequent degradation by the organisms of mold and mildew. In such operations, the salt compound is dispersed and incorporated in the latex paint in the amount of 0.3 percent by weight of the ultimate paint composition.
The paint employed in these operations is prepared by intimately blending a pigment dispersion with a letdown including a synthetic latex comprising an interpolymer of ethyl acrylate, methyl methacrylate, acrylic acid and methacrylic acid. The paint has the following composition.
Wood panels are then painted with the modified compositions as well as with the unmodified paint. The panels are dried and thereafter exposed two months in a tropical chamber at a relative humidity of 95 percent and a temperature of 82°F. (28°C.). Following this period, the wood panels are examined to ascertain what control of […] is obtained.

[2] = tested on: Sprague-Dawley (Cox strain) rats; experiment: Oral median lethal dose in Sprague-Dawley (Cox strain) rats; type: in vivo
Experimental: (§2) The oral median lethal dose (LD50) of ClPhThICl was also determined in Sprague-Dawley (Cox strain) rats within a weight range of 93 to 118 grams. Five groups of rats, each consisting of 10 males and 10 females, were given the compound in an aqueous 0.5 percent METHOCEL hydroxypropyl methylcellulose (4000 cps.) suspension at a concentration of 300 mg/ml. The compound was administered as a single oral dose at 0.2 logarithmic dose intervals (709, 1120, 1780, 2820, 4450 mg/kg), and the following mortality experience was noted:
(§3) The percent of total mortalities occurring was 53.9, 79.3, 85.7 and 93.6 at 6, 24, 48 and 72 hours post-treatment, respectively. The last death occurred between 72 and 96 hours post-treatment in male rats in the 1780 and 4450 mg/kg groups.

[3] = as above; type: in vivo; settings: rat, in vivo, po; for LD50: 7 and 14 days
Experimental: as §2, §3

[4] = tested on: Sprague-Dawley (Cox strain) rats; experiment: as above; type: in vivo; settings: 708 mg/kg oral, 24 Hours
S. typhosa [5] = experiment: Agar plate kill test with Ivory soap, S. typhosa; type: cell-based; settings: 48 h; 1 p.p.m., Ivory soap; read-out: Percent Kill of S. Typhosa
Experimental: (§4) Phenyl-2-thienyliodonium chloride, 2,2'-bisthienyliodonium chloride, and, for comparative purposes, diphenyliodonium chloride are individually dispersed in Ivory soap to provide concentrates containing 1 part by weight of iodonium salt to 50 parts by weight of soap. The soap concentrates are serially dispersed and serially diluted with liquid nutrient agar at 42°C. to prepare culture media containing various concentrations of one of the iodonium salts. The culture media are uniformly inoculated with S. aureus and plated in petri dishes. The inoculation is carried out from broth cultures of the named organism containing about 5×10^8 organisms per milliliter in the proportion of one-tenth milliliter of bacterial culture per 20 milliliters of cultur medium containing each test compound. In a check operation, nutrient agar containing the same amount of Ivory soap is similarly inoculated with the same organism. After two days' incubation at 37°C., the plates are examined for microbial growth.
The procedure described above is again repeated in a series of tests wherein the culture media are inoculated individually with the organism S. typhosa and wherein the culture media contain varying concentrations of one of the iodonium salts, as set forth in following Table II.

S. typhosa [6] = experiment: Nutrient agar growth test, S. typhosa (Example 3); type: cell-based; settings: 0.001 percent by weight, 2 days, 35°C
Excerpt: as §1

A. aerogenes = experiment: Agar plate kill test with Ivory soap, A. aerogenes; type: cell-based; settings: Klebsiella aerogenes, 48 h, read-out: Percent Kill of A. aerogenes
Experimental: as §4
The procedure described above is repeated with varying concentrations of 4-chlorophenyl-2-thienyliodonium chloride, 3,4-dichlorophenyl-2-thienyliodonium chloride, and for comparative purposes bis(4-chlorophenyl)iodonium chloride, phenyl-4-chlorophenyliodonium chloride and bis(2,4-dichlorophenyl)iodoniumchloride in a series of tests wherein the culture media are inoculated individually with the organism A. aerogenes.
The procedure described above is once again repeated with each of 2,2'-bisthienyliodonium chloride, phenyl-2-thienyliodonium chloride, 4-bromophenyl-2-thienyliodonium chloride, bis(4-bromophenyl)iodonium chloride and bis(4-bromophenyl)iodonium bromide in a series of tests wherein the culture media are inoculated individually with the organism A. aerogenes.

Clc1ccc([I+]c2cccs2)cc1.[Cl-] [4-Chlorophenyl-2-thienyliodonium chloride]
microbial growth on agar surface (S. aureus): free of microbial growth | control of growth of mold and mildew on painted panels [1]: complete control of the growth of the organisms of mold and mildew | No. Dead ([2]; 708 mg/kg oral, 7 Days, females): 0/10 | No. Dead ([2]; 708 mg/kg oral, 7 Days, males): 1/10 | No. Dead ([2]; 708 mg/kg oral, 14 Days, females): 0/10 | No. Dead ([2]; 708 mg/kg oral, 14 Days, males): 1/10 | No. Dead ([2]; 1120 mg/kg oral, 7 Days, females): 6/10 | No. Dead ([2]; 1120 mg/kg oral, 7 Days, males): 2/10 | No. Dead ([2]; 1120 mg/kg oral, 14 Days, females): 6/10 | No. Dead ([2]; 1120 mg/kg oral, 14 Days, males): 2/10 | No. Dead ([2]; 1120 mg/kg oral, 24 Hours, females): 2/10 | No. Dead ([2]; 1120 mg/kg oral, 24 Hours, males): 1/10 | No. Dead ([2]; 1780 mg/kg oral, 7 Days, females): 7/10 | No. Dead ([2]; 1780 mg/kg oral, 7 Days, males): 9/10 | No. Dead ([2]; 1780 mg/kg oral, 14 Days, females): 7/10 | No. Dead ([2]; 1780 mg/kg oral, 14 Days, males): 9/10 | No. Dead ([2]; 1780 mg/kg oral, 24 Hours, females): 6/10 | No. Dead ([2]; 1780 mg/kg oral, 24 Hours, males): 4/10 | No. Dead ([2]; 2820 mg/kg oral, 7 Days, females): 10/10 | No. Dead ([2]; 2820 mg/kg oral, 7 Days, males): 8/10 | No. Dead ([2]; 2820 mg/kg oral, 14 Days, females): 10/10 | No. Dead ([2]; 2820 mg/kg oral, 14 Days, males): 8/10 | No. Dead ([2]; 2820 mg/kg oral, 24 Hours, females): 9/10 | No. Dead ([2]; 2820 mg/kg oral, 24 Hours, males): 8/10 | No. Dead ([2]; 4450 mg/kg oral, 7 Days, females): 10/10 | No. Dead ([2]; 4450 mg/kg oral, 7 Days, males): 10/10 | No. Dead ([2]; 4450 mg/kg oral, 14 Days, females): 10/10 | No. Dead ([2]; 4450 mg/kg oral, 14 Days, males): 10/10 | No. Dead ([2]; 4450 mg/kg oral, 24 Hours, females): 10/10 | No. Dead ([2]; 4450 mg/kg oral, 24 Hours, males): 9/10 | percent of total mortalities occurring ([2]; 6 hours post-treatment): 53.9% | percent of total mortalities occurring ([2]; 24 hours post-treatment): 79.3% | percent of total mortalities occurring ([2]; 48 hours post-treatment): 85.7% | percent of total mortalities occurring ([2]; 72 hours post-treatment): 93.6% | LD50 ([3]; female rats, 95% confidence limits 785-1540 mg/kg): 1100 mg/kg | LD50 ([3]; male rats, 95% confidence limits 1171-2296 mg/kg): 1640 mg/kg | LD50 at 24 h ([3]; female rats, 95% confidence limits 1230-2080 mg/kg): 1600 mg/kg | LD50 at 24 h ([3]; male rats, 95% confidence limits 1241-2610 mg/kg): 1800 mg/kg | No. Dead ([4]; females): 0/10 | No. Dead ([4]; males): 1/10 | killing at 1 ppm (S. typhosa [5]): 100% | microbial growth on agar surface (S. typhosa [6]): free of microbial growth | killing at 1 ppm (A. aerogenes): 100%
